According to patent US8552022B2, “Substituted cyclopropyl compounds, compositions containing such compounds and methods of treatment” (Merck Sharp & Dohme Corp., priority 2009, dated 2013):

Biological target: T1, GPR119 (UniProt Q8TDV5, S309L, species not given)
T1 sequence (Q8TDV5 1-335 S309L): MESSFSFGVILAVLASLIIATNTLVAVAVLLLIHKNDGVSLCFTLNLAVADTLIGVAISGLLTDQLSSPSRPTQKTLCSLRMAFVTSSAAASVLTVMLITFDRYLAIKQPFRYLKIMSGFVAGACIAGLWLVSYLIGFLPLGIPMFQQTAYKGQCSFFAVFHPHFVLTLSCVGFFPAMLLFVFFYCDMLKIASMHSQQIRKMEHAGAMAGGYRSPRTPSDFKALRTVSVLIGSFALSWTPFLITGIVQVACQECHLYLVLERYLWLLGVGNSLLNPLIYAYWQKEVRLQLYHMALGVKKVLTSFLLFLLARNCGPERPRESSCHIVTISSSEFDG
Assay: GPR119 signaling, cyclic AMP (cAMP) HTRF assay
Format: cell-based, human (S309L variant) or murine
Settings: CHO cells with Gα15 and murine GPR119 or HEK293 Flp-In cells with human GPR119 S309L, read-out: EC50 (agonist activation of GPR119, cAMP)
Excerpt: The title compound was synthesized using 2-{2-[1-(5-chloropyrimidin-2-yl)piperidin-4-yl]cyclopropyl}ethyl 4-methylbenzenesulfonate from step 1 of this example by a general procedure analogous that described in Example 59. LRMS calc: 424.9; obs: 425.01 (M+1). Measurement of GPR119Signaling Using a Cyclic AMP (cAMP) Homogenous Time Resolved Fluorescence (HTRF) Assay
Chinese hamster ovary (CHO) cell lines stably transfected with the permissive guanine nucleotide binding protein alpha 15 (Gα15) and murine GPR119 were maintained in DMEM media containing FBS, penicillin-streptomycin, puromycin, and G418 (geneticin). Alternatively, human embryonic kidney (HEK)293 Flp-In cells (Invitrogen, Carlsbad, Calif.) were stably transfected with a human SNP variant (S309L) of GPR119 and maintained in DMEM media containing FBS, penicillin-streptomycin, and hygromycin. Agonist activation of the GPR119 receptor was measured in receptor transfected cells described above, treated with compounds of this invention, using a commercial homogenous time resolved fluorescence (HTRF) kit for measurement of cAMP (CisBio, Bedford, Mass.). The assay was performed in 96-well half-volume plates (murine) or 384-well plates (human) following the manufacturers instructions. Briefly, suspended cells were incubated with a dose titration of test compound at room temperature for 60 min, lysed, and incubated with HTRF reagents for an additional 60 min. The plate was read using an Envision multilabel reader (Perkin Elmer) adjusted to read time resolved fluorescence and the cAMP concentrations were extrapolated from a cAMP calibration curve. […] The concentration of test compound required to stimulate a half-maximal response (EC50), and efficacy as compared to an internal agonist control, was determined from a sigmoidal 4-parameter curve fit of the resulting plot of normalized activity versus compound concentration.

| SMILES | EC50 [nM] |
| --- | --- |
| Cc1cc(NC(=O)C(C)(C)C)cnc1NCC[C@@H]1C[C@@H]1C1CCN(c2ncc(Cl)cn2)CC1 [Ex 28, N-{6-[(2-{(1S,2S)-2-[1-(5-chloropyrimidin-2-yl)piperidin-4-yl]cyclopropyl}ethyl)amino]-5-methylpyridin-3-yl}-2,2-dimethylpropanamide] | < 10 |
| CC1(C(=O)Nc2ccc(NCC[C@@H]3C[C@@H]3C3CCN(c4ncc(Cl)cn4)CC3)nc2)CC1 [Ex 37, N-{6-[(2-{(1S,2S)-2-[1-(5-chloropyrimidin-2-yl)piperidin-4-yl]cyclopropyl}ethyl)amino]pyridin-3-yl}-1-methylcyclopropanecarboxamide] | < 10 |
| Cn1ncc2cc(NCC[C@@H]3C[C@@H]3C3CCN(c4ncc(Cl)cn4)CC3)ccc21 [Ex 48, N-(2-{(1S,2S)-2-[1-(5-chloropyrimidin-2-yl)piperidin-4-yl]cyclopropyl}ethyl)-1-methyl-1H-indazol-5-amine] | 10 to 50 |
| CS(=O)(=O)c1ccc(NCC[C@@H]2C[C@H]2C2CCN(c3ncc(Cl)cn3)CC2)cc1 (single isomer, unassigned) [Ex 58, trans-N-(2-{2-[1-(5-chloropyrimidin-2-yl)piperidin-4-yl]cyclopropyl}ethyl)-4-(methylsulfonyl)aniline] | 50 to 200 |
| Cc1nc(C#N)cc(NCC[C@@H]2C[C@@H]2C2CCN(c3ncc(Cl)cn3)CC2)n1 (racemic) [Ex 4, rac-cis-6-[(2-{2-[1-(5-chloropyrimidin-2-yl)piperidin-4-yl]cyclopropyl}ethyl)amino]-2-methylpyrimidine-4-carbonitrile] | < 10 |
| Cc1nnn(-c2ccc(NCC[C@@H]3C[C@@H]3C3CCN(c4ncc(Cl)cn4)CC3)cn2)n1 [Ex 17, N-(2-{(1S,2S)-2-[1-(5-chloropyrimidin-2-yl)piperidin-4-yl]cyclopropyl}ethyl)-6-(5-methyl-2H-tetrazol-2-yl)pyridin-3-amine] | < 10 |
| Cn1cnnc1-c1ccc(NCC[C@@H]2C[C@@H]2C2CCN(c3ncc(Cl)cn3)CC2)cc1 [Ex 13, N-(2-{(1S,2S)-2-[1-(5-chloropyrimidin-2-yl)piperidin-4-yl]cyclopropyl}ethyl)-4-(4-methyl-4H-1,2,4-triazol-3-yl)aniline] | 10 to 50 |
| Clc1cnc(N2CCC([C@H]3C[C@H]3CCNc3ccc(-n4cnnc4)cc3)CC2)nc1 [Ex 25, N-(2-{(1S,2S)-2-[1-(5-chloropyrimidin-2-yl)piperidin-4-yl]cyclopropyl}ethyl)-4-(4H-1,2,4-triazol-4-yl)aniline] | < 10 |
| Clc1cnc(N2CCC([C@H]3C[C@H]3CCNc3ccc(-n4cncn4)cc3)CC2)nc1 [Ex 11, N-(2-{(1S,2S)-2-[1-(5-chloropyrimidin-2-yl)piperidin-4-yl]cyclopropyl}ethyl)-4-(1H-1,2,4-triazol-1-yl)aniline] | < 10 |
| Cc1cc(-n2cnnn2)cnc1NCC[C@@H]1C[C@@H]1C1CCN(c2ncc(Cl)cn2)CC1 [Ex 36, N-(2-{(1S,2S)-2-[1-(5-chloropyrimidin-2-yl)piperidin-4-yl]cyclopropyl}ethyl)-3-methyl-5-(1H-tetrazol-1-yl)pyridin-2-amine] | < 10 |
| CS(=O)(=O)c1ccc(NCC[C@@H]2C[C@@H]2C2CCN(c3ncc(Cl)cn3)CC2)cc1 [Ex 7, N-(2-{(1S,2S)-2-[1-(5-chloropyrimidin-2-yl)piperidin-4-yl]cyclopropyl}ethyl)-4-(methylsulfonyl)aniline] | < 10 |
| Clc1cnc(N2CCC([C@H]3C[C@H]3CCNc3ccc(-n4cnnn4)nc3)CC2)nc1 [Ex 15, N-(2-{(1S,2S)-2-[1-(5-chloropyrimidin-2-yl)piperidin-4-yl]cyclopropyl}ethyl)-6-(1H-tetrazol-1-yl)pyridin-3-amine] | < 10 |
| CC(=O)Nc1ccc(NCC[C@@H]2C[C@@H]2C2CCN(c3ncc(Cl)cn3)CC2)cn1 [Ex 55, N-{5-[(2-{(1S,2S)-2-[1-(5-chloropyrimidin-2-yl)piperidin-4-yl]cyclopropyl}ethyl)amino]pyridin-2-yl}acetamide] | < 10 |
| Cc1cc(C#N)nc(NCC[C@@H]2C[C@@H]2C2CCN(c3ncc(Cl)cn3)CC2)c1 [Ex 41, 6-[(2-{(1S,2S)-2-[1-(5-chloropyrimidin-2-yl)piperidin-4-yl]cyclopropyl}ethyl)amino]-4-methylpyridine-2-carbonitrile] | 10 to 50 |
| CS(=O)(=O)c1ccc(NCC[C@@H]2C[C@H]2C2CCN(c3ncc(Cl)cn3)CC2)cc1 (single isomer, unassigned) [Ex 60, trans N-(2-{2-[1-(5-chloropyrimidin-2-yl)piperidin-4-yl]cyclopropyl}ethyl)-4-(methylsulfonyl)aniline] | 50 to 200 |
| Cc1nc(C#N)cc(NCC[C@H]2C[C@@H]2C2CCN(c3ncc(Cl)cn3)CC2)n1 (relative stereo) [Ex 61, trans 6-[(2-{2-[1-(5-chloropyrimidin-2-yl)piperidin-4-yl]cyclopropyl}ethyl)amino]-2-methylpyrimidine-4-carbonitrile] | < 10 |
| CN1Cc2cc(NCC[C@@H]3C[C@@H]3C3CCN(c4ncc(Cl)cn4)CC3)ccc2C1=O [Ex 45, 5-[(2-{(1S,2S)-2-[1-(5-chloropyrimidin-2-yl)piperidin-4-yl]cyclopropyl}ethyl)amino]-2-methylisoindolin-1-one] | 10 to 50 |
| Clc1cnc(N2CCC([C@H]3C[C@H]3CCNc3cnc(-n4cnnn4)nc3)CC2)nc1 [Ex 26, N-(2-{(1S,2S)-2-[1-(5-chloropyrimidin-2-yl)piperidin-4-yl]cyclopropyl}ethyl)-2-(1H-tetrazol-1-yl)pyrimidin-5-amine] | 10 to 50 |
| Clc1cnc(N2CCC([C@H]3C[C@H]3CCNc3ccc(-n4ccnn4)cc3)CC2)nc1 [Ex 21, N-(2-{(1S,2S)-2-[1-(5-chloropyrimidin-2-yl)piperidin-4-yl]cyclopropyl}ethyl)-4-(1H-1,2,3-triazol-1-yl)aniline] | < 10 |
| O=C(Cc1ccc(NCC[C@@H]2C[C@@H]2C2CCN(c3ncc(Cl)cn3)CC2)cc1)NC1CC1 [Ex 43, 2-{4-[(2-{(1S,2S)-2-[1-(5-chloropyrimidin-2-yl)piperidin-4-yl]cyclopropyl}ethyl)amino]phenyl}-N-cyclopropylacetamide] | 10 to 50 |
| Clc1cnc(N2CCC([C@H]3C[C@H]3CCNc3ccc4cn[nH]c4c3)CC2)nc1 [Ex 57, N-(2-{(1S,2S)-2-[1-(5-chloropyrimidin-2-yl)piperidin-4-yl]cyclopropyl}ethyl)-1H-indazol-6-amine] | < 10 |
| Cc1nc(C#N)cc(NCC[C@@H]2C[C@@H]2C2CCN(c3ncc(Cl)cn3)CC2)n1 [Ex 5, 6-[(2-{(1S,2S)-2-[1-(5-chloropyrimidin-2-yl)piperidin-4-yl]cyclopropyl}ethyl)amino]-2-methylpyrimidine-4-carbonitrile] | 10 to 50 |
| Clc1cnc(N2CCC([C@H]3C[C@H]3CCNc3ccc(-n4cnnn4)cn3)CC2)nc1 [Ex 24, N-(2-{(1S,2S)-2-[1-(5-chloropyrimidin-2-yl)piperidin-4-yl]cyclopropyl}ethyl)-5-(1H-tetrazol-1-yl)pyridin-2-amine] | < 10 |
| O=C1NCc2cc(NCC[C@@H]3C[C@@H]3C3CCN(c4ncc(Cl)cn4)CC3)ccc21 [Ex 44, 5-[(2-{(1S,2S)-2-[1-(5-chloropyrimidin-2-yl)piperidin-4-yl]cyclopropyl}ethyl)amino]isoindolin-1-one] | < 10 |
| CN1C(=O)Cc2cc(NCC[C@@H]3C[C@@H]3C3CCN(c4ncc(Cl)cn4)CC3)ccc21 [Ex 51, 5-[(2-{(1S,2S)-2-[1-(5-chloropyrimidin-2-yl)piperidin-4-yl]cyclopropyl}ethyl)amino]-1-methyl-1,3-dihydro-2H-indol-2-one] | < 10 |
| CC(C)(C)C(=O)Nc1ncc(NCC[C@@H]2C[C@@H]2C2CCN(c3ncc(Cl)cn3)CC2)cc1Cl [Ex 32, N-{3-chloro-5-[(2-{(1S,2S)-2-[1-(5-chloropyrimidin-2-yl)piperidin-4-yl]cyclopropyl}ethyl)amino]pyridin-2-yl}-2,2-dimethyl propanamide] | < 10 |
| CS(=O)(=O)c1ccc(NCC[C@@H]2C[C@@H]2C2CCN(c3ncc(Cl)cn3)CC2)nc1 [Ex 6, N-(2-{(1S,2S)-2-[1-(5-chloropyrimidin-2-yl)piperidin-4-yl]cyclopropyl}ethyl)-5-(methylsulfonyl)pyridin-2-amine] | 10 to 50 |
